Tests used:
[1] = test system: greenhouse red spider mite (Tetranychus urticae); test: Tetranychus test, OP-resistant (TETRUR), spray treatment; assay type: in vivo; details: 100 g/ha
Description: To produce a suitable preparation of active compound, 1 part by weight of active compound is mixed with the stated amounts of solvents and emulsifier, and the concentrate is diluted with emulsifier-containing water to the desired concentration.
Discs of bean leaves (Phaseolus vulgaris) which are infested by all stages of the greenhouse red spider mite (Tetranychus urticae) are sprayed with a preparation of active compound of the desired concentration.
After the desired period of time, the effect in % is determined. 100% means that all spider mites have been killed; 0% means that none of the spider mites have been killed.

[2] = test system: green peach aphid (Myzus persicae); test: Myzus test (MYZUPE), spray treatment; assay type: in vivo; details: 20 g/ha
Description: [table] To produce a suitable preparation of active compound, 1 part by weight of active compound is mixed with the stated amounts of solvent and emulsifier, and the concentrate is diluted with emulsifier-containing water to the desired concentration. Disks of Chinese cabbage (Brassica pekinensis) which are infested with all stages of the green peach aphid (Myzus persicae) are sprayed with a preparation of active compound of the desired concentration. After the desired period of time, the effect in % is determined. 100% means that all aphids have been killed; 0% means that none of the aphids have been killed. [table] To produce a suitable preparation of active compound, 1 part by weight of active compound is mixed with the stated amounts of solvent and emulsifier, and the concentrate is diluted with emulsifier-containing water to the desired concentration. Disks of Chinese cabbage (Brassica pekinensis) which are infested with all stages of the green peach aphid (Myzus persicae) are sprayed with a preparation of active compound of the desired concentration. After the desired period of time, the effect in % is determined. 100% means that all aphids have been killed; 0% means that none of the aphids have been killed.

**Q.** With CC(N=C1OCCN1C(=S)NCC(F)(F)F)c1ccccc1 (stereo not drawn) [Compound 3] as the compound, how does the “2. TETRUR spray appl. % 6 d” value [1] read?
**A.** 70%

**Q.** What about the “1. MYZUPE spray appl. % 6 d” value [2] of the same compound?
**A.** 100%

**Q.** With COCCNC(=S)N1CCO/C1=N\C(C)c1ccccc1Cl (stereo not drawn) [Compound 10, (2Z)-2-{[1-(2-chlorophenyl)ethyl]imino}-N-(2-methoxyethyl)-1,3-oxazolidine-3-carbothioamide] as the compound, how does the logP (Log P) read?
**A.** 4.08

**Q.** Which “2. TETRUR spray appl. % 6 d” value [1] does the source give for COCCNC(=S)N1CCOC1=NC(C)c1ccccc1 (stereo not drawn) [Compound 2] here?
**A.** 90%

**Q.** And the “1. MYZUPE spray appl. % 6 d” value [2]?
**A.** 100%

**Q.** With C[C@H](NC(=O)NCCCl)c1ccccc1 [1-(2-chloroethyl)-3-[(1S)-1-phenylethyl]urea] as the compound, how does the logP (Log P) read?
**A.** 1.76

**Q.** With CC(NC(=O)NCCCl)c1ccccc1Cl (stereo not drawn) [1-(2-chloroethyl)-3-[1-(2-chlorophenyl)ethyl]urea] as the compound, how does the logP (Log P) read?
**A.** 2.3

**Q.** For C[C@H](/N=C1\OCCN1C(=S)NCC#N)c1ccccc1 [Compound 94, (2Z)—N-(cyanomethyl)-2-[(1-phenylethyl)imino]-1,3-oxazolidine-3-carbothioamide], which logP (Log P) is on record?
**A.** 3.07

**Q.** Which “log P (acidic)” value (Log P; acidic, Phys. Data cells marked (C)) does the source give for CCC(N=C1OCCN1C(=S)NCc1ccccc1)c1ccccc1 (stereo not drawn) [compound 68] here?
**A.** 4.68 (C)
